According to ChEMBL document CHEMBL1149046, “Insect Inhibitory Steroidal Saccharide Esters from Physalis peruviana” (J Nat Prod, 1994):

Tests used:
Assay type in all cases: organism-based
Conditions in all cases: artemia, in vivo
[1] = Toxicity in brine shrimp at 500 ppm
[2] = Toxicity in brine shrimp at 1000 ppm
[3] = Toxicity in brine shrimp at 250 ppm

CC(=O)OC[C@H]1O[C@@H](OC(=O)/C(C)=C(\C)C[C@@H](O)[C@@H](C)[C@H]2CC[C@H]3[C@@H]4CC=C5C[C@@H](O)C[C@H](O)[C@]5(C)[C@H]4[C@@H](O)C[C@]23C)[C@H](O[C@@H]2O[C@H](CO)[C@@H](O)[C@H](O)[C@H]2O)[C@@H](O)[C@@H]1O
100%: survival at 500 ppm [1] | survival at 1000 ppm [2] | survival at 250 ppm [3]

C/C(C[C@@H](O)[C@@H](C)[C@H]1CC[C@H]2[C@@H]3CC=C4C[C@@H](O)C[C@H](O)[C@]4(C)[C@H]3[C@@H](O)C[C@]12C)=C(/C)C(=O)O[C@@H]1O[C@H](CO)[C@@H](O)[C@H](O)[C@H]1O
100%: survival at 500 ppm [1] | survival at 1000 ppm [2] | survival at 250 ppm [3]

CC(=O)OC[C@H]1O[C@@H](OC(=O)/C(C)=C(\C)C[C@@H](O)[C@@H](C)[C@H]2CC[C@H]3[C@@H]4CC=C5C[C@@H](O[C@@H]6O[C@H](CO)[C@@H](O)[C@H](O)[C@H]6O)C[C@H](O)[C@]5(C)[C@H]4CC[C@]23C)[C@H](O[C@@H]2O[C@H](COC(C)=O)[C@@H](O[C@@H]3O[C@H](CO)[C@@H](O)[C@H](O)[C@H]3O)[C@H](O)[C@H]2O)[C@@H](O)[C@@H]1O
100%: survival at 500 ppm [1] | survival at 1000 ppm [2] | survival at 250 ppm [3]

CC(=O)OC[C@H]1O[C@@H](OC(=O)/C(C)=C(\C)C[C@@H](O)[C@@H](C)[C@H]2CC[C@H]3[C@@H]4CC=C5C[C@@H](O[C@@H]6O[C@H](CO)[C@@H](O)[C@H](O)[C@H]6O)C[C@H](O)[C@]5(C)[C@H]4CC[C@]23C)[C@H](O[C@@H]2O[C@H](CO)[C@@H](O[C@@H]3O[C@H](CO)[C@@H](O)[C@H](O)[C@H]3O)[C@H](O)[C@H]2O)[C@@H](O)[C@@H]1O
100%: survival at 500 ppm [1] | survival at 1000 ppm [2] | survival at 250 ppm [3]

CC(=O)OC[C@H]1O[C@@H](OC(=O)/C(C)=C(\C)C[C@@H](O)[C@@H](C)[C@H]2CC[C@H]3[C@@H]4CC=C5C[C@@H](O[C@@H]6O[C@H](CO)[C@@H](O)[C@H](O)[C@H]6O)C[C@H](O)[C@]5(C)[C@H]4CC[C@]23C)[C@H](O[C@@H]2O[C@H](CO)[C@@H](O)[C@H](O)[C@H]2O)[C@@H](O)[C@@H]1O
100%: survival at 500 ppm [1] | survival at 1000 ppm [2] | survival at 250 ppm [3]

C/C(C[C@@H](O)[C@@H](C)[C@H]1CC[C@H]2[C@@H]3CC=C4C[C@@H](O[C@@H]5O[C@H](CO)[C@@H](O)[C@H](O)[C@H]5O)C[C@H](O)[C@]4(C)[C@H]3CC[C@]12C)=C(/C)C(=O)O[C@@H]1O[C@H](CO)[C@@H](O)[C@H](O)[C@H]1O[C@@H]1O[C@H](CO)[C@@H](O)[C@H](O)[C@H]1O
100%: survival at 500 ppm [1] | survival at 1000 ppm [2] | survival at 250 ppm [3]
